# In ChEMBL document CHEMBL1145960, “Substituted pyrazolopyridopyridazines as orally bioavailable potent and selective PDE5 inhibitors: potential agents for treatment of erectile dysfunction” (J Med Chem, 2003):
# Experiments:
# [1] = Relative inhibition of PDE1 from bovine heart and PDE5 from human platelets
# [2] = Relative inhibition of PDE2 from rat kidney and PDE5 from human platelets
# [3] = target: Phosphodiesterase 3 and 5 (PDE3 and PDE5) (Homo sapiens) (UniProt O76074+Q14432+Q13370); experiment: Relative inhibition of PDE3 and PDE5 from human platelets
# [4] = Relative inhibition of PDE4 from rat kidney and PDE5 from human platelets
# [5] = Relative inhibition of PDE6 from bovine retina and PDE5 from human platelets
# [6] = Half life of compound was determined in male dogs; format: ADME, organism-based, Canis lupus familiaris; details: dog, in vivo
# [7] = Half life of compound was determined in male rats; format: ADME, organism-based; details: rat, in vivo
# [8] = Bioavailability in dog (male); format: ADME, organism-based, Canis lupus familiaris; details: in vivo
# [9] = Bioavailability in rat (male); format: ADME, organism-based; details: in vivo
# [10] = Relaxant effect mediated by PDE5 inhibition in rabbit corpus cavernosum; format: functional, tissue-based, Oryctolagus cuniculus
# [11] = target: cGMP-specific 3',5'-cyclic phosphodiesterase (Homo sapiens, UniProt O76074); experiment: Inhibition of Phosphodiesterase 5 from human platelets
# [12] = organism: Oryctolagus cuniculus; experiment: Increased mean blood pressure in rabbit corpus carvenosum; format: functional
Compound,Ratio [1],Ratio [2],Ratio [3],Ratio [4],Ratio [5],half-life [6] [h],half-life [7] [h],bioavailability [8] [%],bioavailability [9] [%],EC50 [10] [nM],IC50 [11] [nM],ED50 [12] [µmol/kg]
CCn1ncc2c3c(NCc4ccc(OC)c(Cl)c4)nnc(N4CCC(O)CC4)c3cnc21,5700,4000,7500,300,80,–,–,–,–,–,–,–
CCn1ncc2c3c(NCc4ccc(OC)c(Cl)c4)nnc(-n4cnc(C(=O)NC)c4)c3cnc21,> 10000,> 10000,–,> 10000,150,2,1.2,42,29,13,0.3,0.1
CCn1ncc2c3c(NCc4ccc(OC)c(Cl)c4)nnc(N4CCC(C(=O)O)CC4)c3cnc21,> 10000,> 10000,> 10000,7500,30,–,–,–,–,–,0.03,–
CCCc1nn(C)c2c(=O)[nH]c(-c3cc(S(=O)(=O)N4CCN(C)CC4)ccc3OCC)nc12,–,–,–,–,–,–,–,–,–,19,–,0.11

# Now from value to molecule, other results behind:
Ratio [1],Ratio [2],Ratio [3],Ratio [4],Ratio [5],half-life [6] [h],half-life [7] [h],bioavailability [8] [%],bioavailability [9] [%],EC50 [10] [nM],IC50 [11] [nM],Compound,ED50 [12] [µmol/kg]
6400,9200,–,600,47,–,–,–,–,–,–,CCn1ncc2c(NCc3ccc(OC)c(Cl)c3)c(C(=O)NCc3ccncc3)cnc21,–
> 10000,> 10000,> 10000,4000,210,–,–,–,–,–,0.1,CCn1ncc2c3c(NCc4ccc(OC)c(Cl)c4)nnc(NCc4ccncc4)c3cnc21,–
